Patent publication US20130274338A1, “PHARMACEUTICAL COMPOSITIONS COMPRISING DGLA, 15-OHEPA, AND/OR 15-HETRE AND METHODS OF REDUCING SEBUM PRODUCTION USING SAME” (priority 2012, published 2013)

Test system: P. acnes
Experiment: Agar dilution method, growth of P. acnes and MIC, combinations with a fatty acid spike
Type: cell-based, Propionibacterium acnes
Design: key to Growth Index Plate 1 / Growth Index Plate 2 / Growth Index Plate 3 / Growth Index Avg: +++: confluent growth (comparable to control); ++: less confluent growth; +: marked reduction in growth to multiple tiny, single colonies; −: no growth present
Experimental: Several compounds including fatty acids such as DGLA, 15-OHEPA, and 15-HETrE were tested to determine their capacity to inhibit the growth of P. acnes. In an exemplary method, an agar dilution method was used to determine the minimum inhibitory concentration (MIC) of each tested compound. Briefly, the agar dilution method involved preparing a series of concentrations of each compound (e.g., nicotinamide, benzoyl peroxide, adapalene, metronidazole, DGLA, 15-OHEPA, and 15-HETrE) in a Reinforced Clostridial Agar (RCA) media that facilitates growth of P. acnes under anaerobic conditions. An inoculum of P. acnes was prepared by incubation of P. acnes for approximately seven days at 35-37° C. to achieve a ≧1.0 OD600 inoculum of P. acnes in RCM broth. A portion of this inoculum was then added to the surface of each plate as a 10 μL spot and incubated at 35-37° C. for 72 hours or more. Growth of P. acnes was then observed and compared to control plates in which no compound has been added, and positive inhibition plates prepared with erythromycin. […] The growth of P. acnes in the presence of nicotinamide, benzoyl peroxide, adapalene, metronidazole, DGLA, 15-OHEPA, and 15-HETrE was determined with varying concentrations of the compound (see, Table 2). Next, the MIC was determined as the concentration at which a marked reduction (+) occurs in the appearance of growth on the test plate (as per Clinical and Laboratory Standards Institute M11-A7).
The compounds tested singly in Example 1 were tested in combination with one another to determine the capacity of the combination to inhibit the growth of P. acnes. In an exemplary method, the MIC was determined for each of the combination as described in Example 1. Briefly, test combinations included DGLA with nicotinamide, benzoyl peroxide, adapalene, or metronidazole; 15-HETrE with nicotinamide, benzoyl peroxide, adapalene, or metronidazole; and 15-OHEPA with nicotinamide, benzoyl peroxide, adapalene, or metronidazole. The tables below show the growth of P. acnes in the presence of 0.4 or 1.0 mg/mL DGLA with varying concentrations of nicotinamide, benzoyl peroxide, adapalene, or metronidazole (Table 3); the growth of P. acnes in the presence of 0.01 or 0.05 mg/mL 15-HETrE with varying concentrations of nicotinamide, benzoyl peroxide, adapalene, or metronidazole (Table 5); and the growth of P. acnes in the presence of 0.5 or 0.1 mg/mL 15-OHEPA with varying concentrations of nicotinamide, benzoyl peroxide, adapalene, or metronidazole (Table 7).

[1] = compound at 0.2 mg/mL + 0.01 mg/mL 15-HETrE
[2] = compound at 0.2 mg/mL + 0.05 mg/mL 15-HETrE
[3] = compound at 0.2 mg/mL + 0.05 mg/mL 15-OHEPA
[4] = compound at 0.2 mg/mL + 0.1 mg/mL 15-OHEPA
[5] = compound at 0.2 mg/mL + 0.4 mg/mL dGLA
[6] = compound at 0.2 mg/mL + 1.0 mg/mL dGLA
[7] = compound at 0.4 mg/mL + 0.01 mg/mL 15-HETrE
[8] = compound at 0.4 mg/mL + 0.05 mg/mL 15-HETrE
[9] = compound at 0.4 mg/mL + 0.05 mg/mL 15-OHEPA
[10] = compound at 0.4 mg/mL + 0.1 mg/mL 15-OHEPA
[11] = compound at 0.4 mg/mL + 0.4 mg/mL dGLA
[12] = compound at 0.4 mg/mL + 1.0 mg/mL dGLA
[13] = compound at 0.6 mg/mL + 0.01 mg/mL 15-HETrE
[14] = compound at 0.6 mg/mL + 0.05 mg/mL 15-HETrE
[15] = compound at 0.6 mg/mL + 0.05 mg/mL 15-OHEPA
[16] = compound at 0.6 mg/mL + 0.1 mg/mL 15-OHEPA
[17] = compound at 0.6 mg/mL + 0.4 mg/mL dGLA
[18] = compound at 0.6 mg/mL + 1.0 mg/mL dGLA
[19] = compound at 0.8 mg/mL + 0.01 mg/mL 15-HETrE
[20] = compound at 0.8 mg/mL + 0.05 mg/mL 15-HETrE
[21] = compound at 0.8 mg/mL + 0.05 mg/mL 15-OHEPA
[22] = compound at 0.8 mg/mL + 0.1 mg/mL 15-OHEPA
[23] = compound at 0.8 mg/mL + 0.4 mg/mL dGLA
[24] = compound at 0.8 mg/mL + 1.0 mg/mL dGLA
[25] = compound at 1.0 mg/mL + 0.01 mg/mL 15-HETrE
[26] = compound at 1.0 mg/mL + 0.05 mg/mL 15-HETrE
[27] = compound at 1.0 mg/mL + 0.05 mg/mL 15-OHEPA
[28] = compound at 1.0 mg/mL + 0.1 mg/mL 15-OHEPA
[29] = compound at 1.0 mg/mL + 0.4 mg/mL dGLA
[30] = compound at 1.0 mg/mL + 1.0 mg/mL dGLA

Cc1ncc([N+](=O)[O-])n1CCO [Metronidazole]
+++: Growth Index Avg [1] | Growth Index Plate 1 [1] | Growth Index Plate 2 [1] | Growth Index Plate 3 [1] | Growth Index Avg [3] | Growth Index Plate 1 [3] | Growth Index Plate 2 [3] | Growth Index Plate 3 [3] | Growth Index Avg [5] | Growth Index Plate 1 [5] | Growth Index Plate 2 [5] | Growth Index Plate 3 [5] | Growth Index Avg [6] | Growth Index Plate 1 [6] | Growth Index Plate 2 [6] | Growth Index Plate 3 [6] | Growth Index Avg [7] | Growth Index Plate 1 [7] | Growth Index Plate 2 [7] | Growth Index Plate 3 [7] | Growth Index Avg [9] | Growth Index Plate 1 [9] | Growth Index Plate 2 [9] | Growth Index Plate 3 [9] | Growth Index Avg [11] | Growth Index Plate 1 [11] | Growth Index Plate 2 [11] | Growth Index Plate 3 [11] | Growth Index Avg [12] | Growth Index Plate 1 [12] | Growth Index Plate 2 [12] | Growth Index Plate 3 [12] | Growth Index Avg [13] | Growth Index Plate 1 [13] | Growth Index Plate 2 [13] | Growth Index Plate 3 [13] | Growth Index Avg [15] | Growth Index Plate 1 [15] | Growth Index Plate 2 [15] | Growth Index Plate 3 [15] | Growth Index Avg [17] | Growth Index Plate 1 [17] | Growth Index Plate 2 [17] | Growth Index Plate 3 [17] | Growth Index Avg [18] | Growth Index Plate 1 [18] | Growth Index Plate 2 [18] | Growth Index Plate 3 [18] | Growth Index Avg [19] | Growth Index Plate 1 [19] | Growth Index Plate 2 [19] | Growth Index Plate 3 [19] | Growth Index Avg [21] | Growth Index Plate 1 [21] | Growth Index Plate 2 [21] | Growth Index Plate 1 [23] | Growth Index Avg [24] | Growth Index Plate 1 [24] | Growth Index Plate 2 [24] | Growth Index Avg [25] | Growth Index Plate 1 [25] | Growth Index Plate 2 [25] | Growth Index Plate 3 [25] | Growth Index Avg [27] | Growth Index Plate 1 [27] | Growth Index Plate 3 [27]
did not reduce the growth: growth of P. Acnes in combination with 15-HETrE, compared with 15-HETrE used alone (in combination with 15-HETrE) | growth of P. Acnes in combination with 15-OHEPA, compared with 15 OHEPA used alone (in combination with 15-OHEPA) | growth of P. Acnes in combination with DGLA, compared with DGLA used alone (in combination with DGLA)
−: Growth Index Avg [2] | Growth Index Plate 1 [2] | Growth Index Plate 2 [2] | Growth Index Plate 3 [2] | Growth Index Avg [4] | Growth Index Plate 1 [4] | Growth Index Plate 2 [4] | Growth Index Plate 3 [4] | Growth Index Avg [8] | Growth Index Plate 1 [8] | Growth Index Plate 2 [8] | Growth Index Plate 3 [8] | Growth Index Avg [10] | Growth Index Plate 1 [10] | Growth Index Plate 2 [10] | Growth Index Plate 3 [10] | Growth Index Avg [14] | Growth Index Plate 1 [14] | Growth Index Plate 2 [14] | Growth Index Plate 3 [14] | Growth Index Avg [16] | Growth Index Plate 1 [16] | Growth Index Plate 2 [16] | Growth Index Plate 3 [16] | Growth Index Avg [20] | Growth Index Plate 1 [20] | Growth Index Plate 2 [20] | Growth Index Plate 3 [20] | Growth Index Avg [22] | Growth Index Plate 1 [22] | Growth Index Plate 2 [22] | Growth Index Plate 3 [22] | Growth Index Avg [26] | Growth Index Plate 1 [26] | Growth Index Plate 2 [26] | Growth Index Plate 3 [26] | Growth Index Avg [28] | Growth Index Plate 1 [28] | Growth Index Plate 2 [28] | Growth Index Plate 3 [28]
++: Growth Index Plate 3 [21] | Growth Index Avg [23] | Growth Index Plate 2 [23] | Growth Index Plate 3 [23] | Growth Index Plate 3 [24] | Growth Index Plate 2 [27] | Growth Index Avg [29] | Growth Index Plate 1 [29] | Growth Index Plate 2 [29] | Growth Index Plate 3 [29] | Growth Index Avg [30] | Growth Index Plate 1 [30] | Growth Index Plate 2 [30] | Growth Index Plate 3 [30]
